Data as given in patent publication US7973047B2, “Beta-Secretase modulators and methods of use” (Amgen Inc., priority 2010, dated 2011).

The compounds below were run on Aβ40 in conditioned medium of cells stably expressing Amyloid Precursor Protein (APP) (assay: BACE cell-based assay: Aβ40 in conditioned medium by sandwich ELISA). Details: cell based assay data of Table 4; unit inferred; read-out: Cell Assay.
Outline: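 Aβ40 in conditioned medium was read by time-resolved fluorescence sandwich ELISA (capture pAb40, detection biotinylated 6E10, 4° C incubations). Compounds were applied for 24 h to cells stably expressing APP, at 10 doses from 100 or 10 μM top, 0.1% DMSO. IC50 derived from percent of control.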

Row | SMILES | IC50
1 | CC(=O)N[C@@H](Cc1ccc(F)c(N(C)C)c1)[C@H](O)CN[C@H]1CC2(CCC2)Oc2ncc(CC(C)(C)C)cc21 [compound 709] | 8.01 nM
2 | CCNc1cc(C[C@H](NC(C)=O)[C@H](O)CN[C@H]2CC3(CCC3)Oc3ncc(CC(C)(C)C)cc32)ccc1F [compound 710] | 4.25 nM
3 | CC(=O)N[C@@H](Cc1ccc(Cl)c(Cl)c1)[C@H](O)CN[C@H]1CC2(CCC2)Oc2ncc(CC(C)(C)C)cc21 [compound 711, N-((1S,2R)-1-((3,4-dichlorophenyl)methyl)-3-(((4′S)-6′-(2,2-dimethylpropyl)-3′,4′-dihydrospiro[cyclobutane-1,2′-pyrano[2,3-b]pyridin]-4′-yl)amino)-2-hydroxypropyl)acetamide] | 29.6 nM

Same assay, conditions: cell based assay data, Table 4; unit inferred; read-out: Cell Assay

Row | IC50 | SMILES
4 | 65 nM | CC(=O)N[C@@H](Cc1ccc(OC(F)(F)F)cc1)[C@H](O)CN[C@H]1CC2(CCC2)Oc2ncc(CC(C)(C)C)cc21 [compound 712]
5 | 15.5 nM | CC(=O)N[C@@H](Cc1ccc(F)c(Cl)c1)[C@H](O)CN[C@H]1C[C@]2(C[C@H](C)C2)Oc2ncc(CC(C)(C)C)cc21 [compound 713, N-((1S,2R)-1-((3-chloro-4-fluorophenyl)methyl)-3-(((1s,3R,4′S)-6′-(2,2-dimethylpropyl)-3-methyl-3′,4′-dihydrospiro[cyclobutane-1,2′-pyrano[2,3-b]pyridin]-4′-yl)amino)-2-hydroxypropyl)acetamide]
6 | 26.7 nM | CC(=O)N[C@@H](Cc1ccc(Cl)cc1)[C@H](O)CN[C@H]1C[C@]2(C[C@H](C)C2)Oc2ncc(CC(C)(C)C)cc21 [compound 714, N-((1S,2R)-1-((4-chlorophenyl)methyl)-3-(((1s,3R,4′S)-6′-(2,2-dimethylpropyl)-3-methyl-3′,4′-dihydrospiro[cyclobutane-1,2′-pyrano[2,3-b]pyridin]-4′-yl)amino)-2-hydroxypropyl)acetamide]
7 | 23.3 nM | CC(=O)N[C@@H](Cc1ccc(Cl)c(C(F)(F)F)c1)[C@H](O)CN[C@H]1CC2(CCC2)Oc2ncc(CC(C)(C)C)cc21 [compound 716]
8 | 52.5 nM | C=CCC[C@H](NC(C)=O)[C@H](O)CN[C@H]1C[C@]2(C[C@H](C)C2)Oc2ncc(CC(C)(C)C)cc21 [compound 717, N-((1S)-1-((1R)-2-(((1s,3R,4′S)-6′-(2,2-dimethylpropyl)-3-methyl-3′,4′-dihydrospiro[cyclobutane-1,2′-pyrano[2,3-b]pyridin]-4′-yl)amino)-1-hydroxyethyl)-4-penten-1-yl)acetamide]
9 | 3.98 nM | CC(=O)N[C@@H](Cc1cccc(C(F)(F)F)c1)[C@H](O)CN[C@H]1CC2(CCC2)Oc2ncc(CC(C)(C)C)cc21 [compound 718]
10 | 8.57 nM | CC(=O)N[C@@H](Cc1ccc(Cl)c(F)c1)[C@H](O)CN[C@H]1CC2(CCC2)Oc2ncc(CC(C)(C)C)cc21 [compound 720]
11 | 21.4 nM | COc1cc(C[C@H](NC(C)=O)[C@H](O)CN[C@H]2CC3(CCC3)Oc3ncc(CC(C)(C)C)cc32)ccc1Cl [compound 721]
12 | 195 nM | CC(=O)N[C@@H](CC1CC1C)[C@H](O)CN[C@H]1CC2(CCC2)Oc2ncc(CC(C)(C)C)cc21 (stereo partly drawn) [compound 723, N-((1S,2R)-3-(((4′S)-6′-(2,2-dimethylpropyl)-3′,4′-dihydrospiro[cyclobutane-1,2′-pyrano[2,3-b]pyridin]-4′-yl)amino)-2-hydroxy-1-((2-methylcyclopropyl)methyl)propyl)acetamide]
13 | 68.8 nM | CC(=O)N[C@@H](CC1CC1)[C@H](O)CN[C@H]1C[C@]2(C[C@H](C)C2)Oc2ncc(CC(C)(C)C)cc21 [compound 725, N-((1S,2R)-1-(cyclopropylmethyl)-3-(((1s,3R,4′S)-6′-(2,2-dimethylpropyl)-3-methyl-3′,4′-dihydrospiro[cyclobutane-1,2′-pyrano[2,3-b]pyridin]-4′-yl)amino)-2-hydroxypropyl)acetamide]
14 | 9.72 nM | CC(=O)N[C@@H](Cc1ccnc(OC(F)F)c1)[C@H](O)CN[C@H]1CC2(CCC2)Oc2ncc(CC(C)(C)C)cc21 [compound 726, N-((1S,2R)-1-((2-((difluoromethyl)oxy)-4-pyridinyl)methyl)-3-(((4′S)-6′-(2,2-dimethylpropyl)-3′,4′-dihydrospiro[cyclobutane-1,2′-pyrano[2,3-b]pyridin]-4′-yl)amino)-2-hydroxypropyl)acetamide]
15 | ≥ 10000 nM | CC(=O)N[C@@H](Cn1cccn1)[C@H](O)CN[C@H]1CC2(CCC2)Oc2ncc(CC(C)(C)C)cc21 [compound 735]
16 | ≥ 10000 nM | C=CC[C@H](NC(C)=O)[C@@H](O)CN[C@H]1CC2(CCC2)Oc2ncc(CC(C)(C)C)cc21 [compound 737, N-((1S)-1-((1S)-2-(((4′S)-6′-(2,2-dimethylpropyl)-3′,4′-dihydrospiro[cyclobutane-1,2′-pyrano[2,3-b]pyridin]-4′-yl)amino)-1-hydroxyethyl)-3-buten-1-yl)acetamide]
17 | 298 nM | C/C=C/C[C@H](NC(C)=O)[C@H](O)CN[C@H]1CC2(CCC2)Oc2ncc(CC(C)(C)C)cc21 [compound 739, N-((1S,3E)-1-((1R)-2-(((4′S)-6′-(2,2-dimethylpropyl)-3′,4′-dihydrospiro[cyclobutane-1,2′-pyrano[2,3-b]pyridin]-4′-yl)amino)-1-hydroxyethyl)-3-penten-1-yl)acetamide]

The next lines start with the compound.

Row | SMILES | IC50
18 | C=CCC[C@H](NC(C)=O)[C@H](O)CN[C@H]1CC2(CCC2)Oc2ncc(CC(C)(C)C)cc21 [compound 715] | 40.8 nM
19 | CC(=O)N[C@@H](Cc1cccc(C(F)(F)F)c1)[C@H](O)CN[C@H]1CC2(CCC2)Oc2ncc(CC(C)C)cc21 [compound 719] | 9.35 nM
20 | CC(=O)N[C@@H](CC1CC1)[C@H](O)CN[C@H]1CC2(CCC2)Oc2ncc(CC(C)(C)C)cc21 [compound 722, N-((1S,2R)-1-(cyclopropylmethyl)-3-(((4′S)-6′-(2,2-dimethylpropyl)-3′,4′-dihydrospiro[cyclobutane-1,2′-pyrano[2,3-b]pyridin]-4′-yl)amino)-2-hydroxypropyl)acetamide] | 46.5 nM
21 | CC(=O)N[C@@H](CC1CC1)[C@H](O)CN[C@H]1CC2(CCC2)Oc2ncc(CC(C)(C)CC(F)F)cc21 [compound 724, N-((1S,2R)-1-(cyclopropylmethyl)-3-(((4′S)-6′-(4,4-difluoro-2,2-dimethylbutyl)-3′,4′-dihydrospiro[cyclobutane-1,2′-pyrano[2,3-b]pyridin]-4′-yl)amino)-2-hydroxypropyl)acetamide] | 184 nM
22 | CN(C)CC(=O)N[C@@H](Cc1cccc(C#N)c1)[C@H](O)CN[C@H]1CC2(CCC2)Oc2ccc(Br)cc21 [compound 727] | 300 nM
23 | COC(=O)c1ccc2c(c1)[C@@H](NC[C@@H](O)[C@H](Cc1cccc(C#N)c1)NC(=O)CN(C)C)CC1(CCC1)O2 [compound 728] | 43.9 nM
24 | COC(=O)c1ccc2c(c1)[C@@H](NC[C@@H](O)[C@H](Cc1cccc(C#N)c1)NC(C)=O)CC1(CCC1)O2 [compound 729] | 1450 nM
25 | COCC(=O)N[C@@H](Cc1cccc(C#N)c1)[C@H](O)CN[C@H]1CC2(CCC2)Oc2ccc(C(=O)OC)cc21 [compound 730] | 1020 nM
26 | CCc1ccc2c(c1)[C@@H](NC[C@@H](O)[C@H](COC)NC(C)=O)CC1(CCC1)O2 [compound 731] | 2520 nM
27 | CCCOC[C@H](NC(C)=O)[C@H](O)CN[C@H]1CC2(CCC2)Oc2ccc(CC)cc21 [compound 732] | 3260 nM
28 | CCc1ccc2c(c1)[C@@H](NC[C@@H](O)[C@H](COCc1ccccc1)NC(C)=O)CC1(CCC1)O2 [compound 733] | ≥ 10000 nM
29 | CCc1ccc2c(c1)[C@@H](NC[C@@H](O)[C@H](Cn1cccn1)NC(C)=O)CC1(CCC1)O2 [compound 734] | 5370 nM
30 | CC(=O)N[C@@H](CCC(F)(F)F)[C@H](O)CN[C@H]1CC2(CCC2)Oc2ncc(CC(C)(C)C)cc21 [compound 738, N-((1S)-1-((1R)-2-(((4′S)-6′-(2,2-dimethylpropyl)-3′,4′-dihydrospiro[cyclobutane-1,2′-pyrano[2,3-b]pyridin]-4′-yl)amino)-1-hydroxyethyl)-4,4,4-trifluorobutyl)acetamide] | 1420 nM
31 | C=C[C@H](NC(C)=O)[C@H](O)CN[C@H]1CC2(CCC2)Oc2ncc(CC(C)(C)C)cc21 [compound 740, N-((1S)-1-((1R)-2-(((4′S)-6′-(2,2-dimethylpropyl)-3′,4′-dihydrospiro[cyclobutane-1,2′-pyrano[2,3-b]pyridin]-4′-yl)amino)-1-hydroxyethyl)-2-propen-1-yl)acetamide] | 3330 nM
32 | C=CC[C@H](NC(C)=O)[C@H](O)CN[C@H]1CC2(CCC2)Oc2ncc(CC(C)(C)F)cc21 [compound 741, N-((1S)-1-((1R)-2-(((4′S)-6′-(2-fluoro-2-methylpropyl)-3′,4′-dihydrospiro[cyclobutane-1,2′-pyrano[2,3-b]pyridin]-4′-yl)amino)-1-hydroxyethyl)-3-buten-1-yl)acetamide] | 193 nM
33 | CCC#CC[C@H](NC(C)=O)[C@H](O)CN[C@H]1CC2(CCC2)Oc2ncc(CC(C)(C)C)cc21 [compound 742] | 286 nM
34 | Cc1nccn1CC(=O)N[C@@H](Cc1ccccc1)[C@H](O)CN[C@H]1CC2(CCC2)Oc2ccc(CC(C)(C)C)cc21 [compound 744, N-((1S,2R)-3-(((4S)-6-(2,2-dimethylpropyl)-3,4-dihydrospiro[chromene-2,1′-cyclobutan]-4-yl)amino)-2-hydroxy-1-(phenylmethyl)propyl)-2-(1H-2-methyl-imidazol-1-yl) acetamide] | 5.72 nM
35 | CC(=O)N[C@@H](Cc1cc(F)cc(F)c1)[C@H](O)CN[C@H]1CC2(CCC2)Oc2ncc(Br)cc21 [compound 745] | 33.1 nM
36 | CC(=O)N[C@@H](Cc1cc(F)cc(F)c1)[C@H](O)CN[C@H]1CC2(CCC2)Oc2ncc(-n3cccn3)cc21 [compound 746] | 215 nM
37 | CC(=O)N[C@@H](Cc1cc(F)cc(F)c1)[C@H](O)CN[C@H]1CC2(CCC2)Oc2ncc(-n3ccnc3)cc21 [compound 747] | 498 nM
38 | CC(=O)N[C@@H](Cc1cc(F)cc(F)c1)[C@H](O)CN[C@H]1CC2(CCC2)Oc2ncc(-c3nccs3)cc21 [compound 748] | 1050 nM
